Experimental data from the NIST ThermoML archive (doi:10.1021/je034290l).

Assays:
[1] = 318.15 K; 101.33 kPa; Liquid
[2] = refractive index (Na D-line) (dimensionless); settings: 318.15 K; 101.33 kPa; Liquid; Standard Abbe refractometry
[3] = xn = mol fraction of the nth substance listed; settings: 101.32 kPa, Liquid
[4] = excess molar enthalpy (molar enthalpy of mixing); xn = mol fraction of the nth substance listed; settings: 101.32 kPa, Liquid, Calvet calorimetry

CC(C)(C)O [2-methylpropan-2-ol]
Settings | mass density [kg/m3] | refractive index
[1] | 759.87 | –
[2] | – | 1.3741

CCCC(=O)OC [methyl butanoate] + CC(C)(C)O
Settings | excess molar enthalpy [kcal/mol] | excess molar volume [m3/mol]
[3], 303.15 K, x1 = 0.0628 | – | 1.6e-07
[3], 303.15 K, x1 = 0.0928 | – | 2.36e-07
[3], 303.15 K, x1 = 0.1566 | – | 3.68e-07
[3], 303.15 K, x1 = 0.194 | – | 4.3e-07
[3], 303.15 K, x1 = 0.2507 | – | 5.07e-07
[3], 303.15 K, x1 = 0.3088 | – | 5.69e-07
[3], 303.15 K, x1 = 0.3502 | – | 6.04e-07
[3], 303.15 K, x1 = 0.3916 | – | 6.3e-07
[3], 303.15 K, x1 = 0.453 | – | 6.49e-07
[3], 303.15 K, x1 = 0.5059 | – | 6.51e-07
[3], 303.15 K, x1 = 0.5463 | – | 6.4e-07
[3], 303.15 K, x1 = 0.6022 | – | 6.17e-07
[3], 303.15 K, x1 = 0.6588 | – | 5.71e-07
[3], 303.15 K, x1 = 0.698 | – | 5.37e-07
[3], 303.15 K, x1 = 0.7527 | – | 4.73e-07
[3], 303.15 K, x1 = 0.7928 | – | 4.2e-07
[3], 303.15 K, x1 = 0.851 | – | 3.21e-07
[3], 303.15 K, x1 = 0.9115 | – | 2.06e-07
[3], 303.15 K, x1 = 0.942 | – | 1.4e-07
[3], 318.15 K, x1 = 0.1079 | – | 2.35e-07
[3], 318.15 K, x1 = 0.1326 | – | 2.91e-07
[3], 318.15 K, x1 = 0.1749 | – | 3.68e-07
[3], 318.15 K, x1 = 0.2201 | – | 4.34e-07
[3], 318.15 K, x1 = 0.2751 | – | 5.03e-07
[3], 318.15 K, x1 = 0.3257 | – | 5.54e-07
[3], 318.15 K, x1 = 0.3949 | – | 6.05e-07
[3], 318.15 K, x1 = 0.4521 | – | 6.3e-07
[3], 318.15 K, x1 = 0.4783 | – | 6.36e-07
[3], 318.15 K, x1 = 0.55 | – | 6.31e-07
[3], 318.15 K, x1 = 0.5996 | – | 6.16e-07
[3], 318.15 K, x1 = 0.6675 | – | 5.74e-07
[3], 318.15 K, x1 = 0.7318 | – | 5.24e-07
[3], 318.15 K, x1 = 0.8163 | – | 4.04e-07
[3], 318.15 K, x1 = 0.8728 | – | 3.17e-07
[4], 299.15 K, x1 = 0.0487 | 0.0783 | –
[4], 299.15 K, x1 = 0.1046 | 0.158 | –
[4], 299.15 K, x1 = 0.1632 | 0.234 | –
[4], 299.15 K, x1 = 0.2233 | 0.299 | –
[4], 299.15 K, x1 = 0.283 | 0.351 | –
[4], 299.15 K, x1 = 0.3383 | 0.389 | –
[4], 299.15 K, x1 = 0.3915 | 0.415 | –
[4], 299.15 K, x1 = 0.4395 | 0.431 | –
[4], 299.15 K, x1 = 0.4853 | 0.439 | –
[4], 299.15 K, x1 = 0.5221 | 0.441 | –
[4], 299.15 K, x1 = 0.5268 | 0.441 | –
[4], 299.15 K, x1 = 0.5545 | 0.439 | –
[4], 299.15 K, x1 = 0.5745 | 0.437 | –
[4], 299.15 K, x1 = 0.636 | 0.417 | –
[4], 299.15 K, x1 = 0.7063 | 0.379 | –
[4], 299.15 K, x1 = 0.778 | 0.323 | –
[4], 299.15 K, x1 = 0.8552 | 0.24 | –
[4], 299.15 K, x1 = 0.9325 | 0.129 | –
[4], 318.15 K, x1 = 0.0458 | 0.0698 | –
[4], 318.15 K, x1 = 0.1 | 0.141 | –
[4], 318.15 K, x1 = 0.1556 | 0.207 | –
[4], 318.15 K, x1 = 0.2136 | 0.274 | –
[4], 318.15 K, x1 = 0.2734 | 0.329 | –
[4], 318.15 K, x1 = 0.3313 | 0.37 | –
[4], 318.15 K, x1 = 0.3854 | 0.401 | –
[4], 318.15 K, x1 = 0.4221 | 0.415 | –
[4], 318.15 K, x1 = 0.4655 | 0.427 | –
[4], 318.15 K, x1 = 0.5127 | 0.431 | –
[4], 318.15 K, x1 = 0.5632 | 0.429 | –
[4], 318.15 K, x1 = 0.6217 | 0.416 | –
[4], 318.15 K, x1 = 0.6845 | 0.388 | –
[4], 318.15 K, x1 = 0.7505 | 0.344 | –
[4], 318.15 K, x1 = 0.8187 | 0.28 | –
[4], 318.15 K, x1 = 0.884 | 0.195 | –
[4], 318.15 K, x1 = 0.9472 | 0.102 | –

COC=O [methyl methanoate] + CC(C)(C)O
299.15 K
Settings | excess molar enthalpy, [4] [kcal/mol] | excess molar volume, [3] [m3/mol]
x1 = 0.0627 | – | 2.95e-07
x1 = 0.0899 | 0.158 | –
x1 = 0.1002 | – | 4.51e-07
x1 = 0.1302 | – | 5.67e-07
x1 = 0.1667 | – | 6.88e-07
x1 = 0.202 | 0.336 | –
x1 = 0.2419 | – | 8.67e-07
x1 = 0.2873 | 0.451 | –
x1 = 0.319 | – | 9.88e-07
x1 = 0.3526 | – | 1.025e-06
x1 = 0.3657 | 0.528 | –
x1 = 0.4033 | – | 1.061e-06
x1 = 0.4323 | 0.57 | –
x1 = 0.4976 | – | 1.068e-06
x1 = 0.5033 | 0.594 | –
x1 = 0.5076 | – | 1.067e-06
x1 = 0.5567 | 0.594 | –
x1 = 0.5726 | – | 1.036e-06
x1 = 0.6017 | 0.581 | –
x1 = 0.6163 | – | 9.94e-07
x1 = 0.6287 | 0.569 | –
x1 = 0.6512 | – | 9.55e-07
x1 = 0.6747 | 0.538 | –
x1 = 0.7222 | 0.491 | 8.68e-07
x1 = 0.7382 | – | 8.34e-07
x1 = 0.7721 | 0.433 | –
x1 = 0.7939 | – | 7.46e-07
x1 = 0.8111 | – | 7.04e-07
x1 = 0.8206 | 0.364 | –
x1 = 0.8697 | 0.282 | –
x1 = 0.8902 | – | 5.01e-07
x1 = 0.9187 | 0.186 | –
x1 = 0.9574 | – | 2.43e-07
x1 = 0.9598 | 0.0997 | –

CCC(=O)OC [methyl propanoate] + CC(C)(C)O
Settings | excess molar enthalpy [kcal/mol] | excess molar volume [m3/mol]
[3], 303.15 K, x1 = 0.0517 | – | 1.52e-07
[3], 303.15 K, x1 = 0.1081 | – | 2.93e-07
[3], 303.15 K, x1 = 0.1525 | – | 3.88e-07
[3], 303.15 K, x1 = 0.202 | – | 4.71e-07
[3], 303.15 K, x1 = 0.2516 | – | 5.43e-07
[3], 303.15 K, x1 = 0.3129 | – | 6.1e-07
[3], 303.15 K, x1 = 0.3638 | – | 6.48e-07
[3], 303.15 K, x1 = 0.406 | – | 6.67e-07
[3], 303.15 K, x1 = 0.4603 | – | 6.78e-07
[3], 303.15 K, x1 = 0.5167 | – | 6.79e-07
[3], 303.15 K, x1 = 0.5558 | – | 6.68e-07
[3], 303.15 K, x1 = 0.6086 | – | 6.41e-07
[3], 303.15 K, x1 = 0.6546 | – | 6.07e-07
[3], 303.15 K, x1 = 0.7197 | – | 5.43e-07
[3], 303.15 K, x1 = 0.752 | – | 4.91e-07
[3], 303.15 K, x1 = 0.8122 | – | 4.15e-07
[3], 303.15 K, x1 = 0.8545 | – | 3.48e-07
[3], 303.15 K, x1 = 0.9065 | – | 2.53e-07
[3], 303.15 K, x1 = 0.9394 | – | 1.73e-07
[3], 318.15 K, x1 = 0.075 | – | 1.94e-07
[3], 318.15 K, x1 = 0.1476 | – | 3.15e-07
[3], 318.15 K, x1 = 0.1952 | – | 4.16e-07
[3], 318.15 K, x1 = 0.2636 | – | 4.98e-07
[3], 318.15 K, x1 = 0.3159 | – | 5.59e-07
[3], 318.15 K, x1 = 0.3628 | – | 6.06e-07
[3], 318.15 K, x1 = 0.4165 | – | 6.39e-07
[3], 318.15 K, x1 = 0.4931 | – | 6.48e-07
[3], 318.15 K, x1 = 0.5472 | – | 6.41e-07
[3], 318.15 K, x1 = 0.6296 | – | 6.09e-07
[3], 318.15 K, x1 = 0.6429 | – | 5.87e-07
[3], 318.15 K, x1 = 0.7013 | – | 5.41e-07
[3], 318.15 K, x1 = 0.795 | – | 4.27e-07
[3], 318.15 K, x1 = 0.8267 | – | 3.68e-07
[3], 318.15 K, x1 = 0.8822 | – | 2.81e-07
[3], 318.15 K, x1 = 0.9493 | – | 1.39e-07
[4], 299.15 K, x1 = 0.0603 | 0.1 | –
[4], 299.15 K, x1 = 0.1414 | 0.213 | –
[4], 299.15 K, x1 = 0.2285 | 0.317 | –
[4], 299.15 K, x1 = 0.3164 | 0.395 | –
[4], 299.15 K, x1 = 0.3971 | 0.442 | –
[4], 299.15 K, x1 = 0.4573 | 0.461 | –
[4], 299.15 K, x1 = 0.4705 | 0.464 | –
[4], 299.15 K, x1 = 0.5159 | 0.467 | –
[4], 299.15 K, x1 = 0.5343 | 0.465 | –
[4], 299.15 K, x1 = 0.5899 | 0.453 | –
[4], 299.15 K, x1 = 0.6328 | 0.435 | –
[4], 299.15 K, x1 = 0.6447 | 0.428 | –
[4], 299.15 K, x1 = 0.7116 | 0.387 | –
[4], 299.15 K, x1 = 0.7778 | 0.328 | –
[4], 299.15 K, x1 = 0.8496 | 0.244 | –
[4], 299.15 K, x1 = 0.9351 | 0.115 | –
[4], 318.15 K, x1 = 0.0486 | 0.0779 | –
[4], 318.15 K, x1 = 0.1007 | 0.153 | –
[4], 318.15 K, x1 = 0.1707 | 0.24 | –
[4], 318.15 K, x1 = 0.2374 | 0.31 | –
[4], 318.15 K, x1 = 0.3021 | 0.364 | –
[4], 318.15 K, x1 = 0.3578 | 0.4 | –
[4], 318.15 K, x1 = 0.4076 | 0.425 | –
[4], 318.15 K, x1 = 0.4404 | 0.439 | –
[4], 318.15 K, x1 = 0.4827 | 0.445 | –
[4], 318.15 K, x1 = 0.5312 | 0.45 | –
[4], 318.15 K, x1 = 0.582 | 0.441 | –
[4], 318.15 K, x1 = 0.6358 | 0.423 | –
[4], 318.15 K, x1 = 0.6986 | 0.393 | –
[4], 318.15 K, x1 = 0.7666 | 0.336 | –
[4], 318.15 K, x1 = 0.8289 | 0.272 | –
[4], 318.15 K, x1 = 0.8931 | 0.189 | –
[4], 318.15 K, x1 = 0.9582 | 0.0935 | –
